According to patent US20180256560A1 (priority 2015, published 2018):
Several values for one entry are separate records, joined by “and”; a condition that tells them apart may be missing. Equal values may be shown once. Read-outs that look alike come from different tables or passages of the source.

Key:
[1] = 20 mg/ml nicotine in the formulation; FIGS. 4.4-4.6
Procedure: Test solutions were prepared from ethanol, de-ionized water, a 20% stock solution of glycerol in de-ionized water, a 5 M NaCl solution and nicotine solutions of 40 mg/ml in either ethanol or de-ionized water. Solutions were analysed for droplet size distributions generated by an eFlow© rapid nebulizer device (PARI GmbH) which was placed at 90° to, and 15 cm from, the laser light path of a Malvern Spraytec particle sizer. A Malvern Spraytec Real Time Droplet Sizer and an Alberta Idealized Throat coupled to an Andersen Cascade Impactor (AIT/ACI) were also used to determine droplet size.
The surface to volume ratio of the droplets was calculated using the following formulae:

[2] = not given; remark: listed apart in the source
[3] = cited from earlier work
[4] = not given; remark: listed apart in the source

CN1CCC[C@H]1c1cccnc1 [nicotine, (S)-3-(1-Methyl-2-pyrrolidinyl)pyridine]
reduction of nicotine in gas form at equilibrium by ethanol (20 mg/ml nicotine, 1% ethanol, FIG. 2.3): 90% | effect of pH on amount of nicotine in gas form at equilibrium (decreasing pH from 10 to 3, FIG. 2.2): dramatically decreases | effect of metal salt on amount of gaseous nicotine at equilibrium (higher salt concentrations): larger amounts of gaseous nicotine | effect of adding nicotine on droplet size [1]: no major shift in droplet size | enhancement of gaseous release of nicotine from the solution by salt ([2]; 1M NaCl): two-fold | reduction of nicotine gas release by ethanol (dynamic) ([2]; 10% ethanol, FIG. 3.4): 90% | effect of pH on nicotine gas release (dynamic) ([2]; decreasing pH from 8 to 3, FIG. 3.2): dramatically decreases | effect of NaCl on nicotine release in gas form (dynamic) ([2]; increasing NaCl from 0 to 1M, FIG. 3.3): dramatically increases | nicotine in 5 litres of arterial blood ([3]; 25% of the average 1 mg of nicotine delivered by a cigarette): 30 to 60 ng/mL | time to peak nicotine concentration in arterial blood ([3]; smokers, typical): 3 to 5 min | nicotine molecules uncharged ([4]; pH 7): approximately 10% | nicotine molecules uncharged ([4]; pH 10): > 99% and ~100%
